In patent US6737383B1, “Herbicidal oxadiazolidines” (priority 1999, dated 2004):

Columns and labels:
[1] = system: morningglory; experiment: Test B pre/postemergence morningglory; assay type: in vivo, Ipomoea hederacea
Procedure, shortened: (§1)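 Herbicidal effect was estimated by eye on a ten-point control scale after plants spent twelve to sixteen days in a greenhouse following soil or foliar treatment. Foliar sprays targeted plants at one to four leaves; all doses were formulated in a non-phytotoxic solvent with surfactant.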

[2] = system: crabgrass; experiment: Test B pre/postemergence crabgrass; assay type: in vivo, Digitaria sanguinalis
Procedure, shortened: as §1

[3] = system: purple nutsedge; experiment: Test B pre/postemergence purple nutsedge; assay type: in vivo, Cyperus rotundus
Procedure, shortened: as §1

[4] = system: giant foxtail; experiment: Test B pre/postemergence giant foxtail; assay type: in vivo, Setaria faberii
Procedure, shortened: as §1

[5] = system: soybean; experiment: Test B pre/postemergence soybean; assay type: in vivo, Glycine max
Procedure, shortened: as §1

[6] = system: bedstraw; experiment: Test B pre/postemergence bedstraw; assay type: in vivo, Galium aparine
Procedure, shortened: as §1

[7] = system: surinam grass; experiment: Test B pre/postemergence surinam grass; assay type: in vivo, Brachiaria decumbens
Procedure, shortened: as §1

[8] = system: wheat; experiment: Test B pre/postemergence wheat; assay type: in vivo, Triticum aestivum
Procedure, shortened: as §1

[9] = system: rice; experiment: Test B flood test rice; assay type: in vivo, Oryza sativa
Procedure, shortened: (§2)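 Each value is a visual injury score relative to controls, with 10 meaning complete control and 0 no effect. Evaluation took place twelve to sixteen days after the 2-leaf-stage plants were treated and kept in the greenhouse.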

[10] = system: pigweed; experiment: Test B pre/postemergence pigweed; assay type: in vivo, Amaranthus retroflexus
Procedure, shortened: as §1

[11] = system: wild oat; experiment: Test B pre/postemergence wild oat; assay type: in vivo, Avena fatua
Procedure, shortened: as §1

[12] = system: smallflower flatsedge; experiment: Test B flood test smallflower flatsedge; assay type: in vivo, Cyperus difformis
Procedure, shortened: as §2

[13] = system: velvetleaf; experiment: Test B pre/postemergence velvetleaf; assay type: in vivo, Abutilon theophrasti
Procedure, shortened: as §1

[14] = system: blackgrass; experiment: Test B pre/postemergence blackgrass; assay type: in vivo, Alopecurus myosuroides
Procedure, shortened: as §1

[15] = system: bamyardgrass; experiment: Test B flood test barnyardgrass; assay type: in vivo, Echinochloa crus-galli
Procedure, shortened: as §2

[16] = system: cocklebur; experiment: Test B pre/postemergence cocklebur; assay type: in vivo, Xanthium strumarium
Procedure, shortened: as §1

[17] = Postemergence, Rate 1000 g/ha, scale 0 to 10 (0 no effect, 10 complete control)
[18] = Preemergence, Rate 62 g/ha, scale of 0 to 10 where 0 is no effect and 10 is complete control
[19] = Preemergence, Rate 125 g/ha, 0 is no effect, 10 is complete control
[20] = Preemergence, Rate 250 g/ha, scale 0 to 10, 0 is no effect, 10 is complete control
[21] = Preemergence, Rate 500 g/ha, scale 0 to 10 (0 no effect, 10 complete control)
[22] = Rate 62 g/ha, Postemergence, scale of 0 to 10 where 0 is no effect and 10 is complete control
[23] = Rate 125 g/ha, Postemergence, scale 0 to 10
[24] = Rate 500 g/ha, Postemergence, scale 0 to 10
[25] = Rate 1000 g/ha, Preemergence, scale 0 to 10 (0 no effect, 10 complete control)
[26] = Rate 62 g/ha, headed Pre-emergence (flood test species), scale 0 to 10 (0 no effect, 10 complete control)
[27] = Rate 125 g/ha, Pre-emergence, flood test species, scale 0 to 10 where 0 is no effect and 10 is complete control
[28] = Rate 250 g/ha, Pre-emergence, flood-test species, scale 0 to 10, 0 is no effect, 10 is complete control
[29] = Rate 500 g/ha, headed Pre-emergence (flood test species), scale 0 to 10 (0 no effect, 10 complete control)
[30] = Rate 1000 g/ha, Pre-emergence (as headed), scale 0 to 10

With `CC(C)N(C(=O)n1oc(=O)n(C2CCCC(C(F)(F)F)C2)c1=O)c1ccc(F)cc1` (stereo not drawn) [Compound 184] the “Morningglory plant response rating” value [1, 17] was 9, the “Morningglory plant response rating” value [1, 18] was 0 and the “Morningglory plant response rating (0 to 10 scale)” value [1, 19] was 0. The “Morningglory plant response rating” value [1, 20] was 0, the “Morningglory plant response rating” value [1, 21] was 0 and the “Morningglory plant response rating” value [1, 22] was 0. The “Morningglory plant response rating” value [1, 23] was 6, the “Plant response rating (0 to 10; 0 is no effect, 10 is complete control), Morningglory” value ([1]; Rate 250 g/ha, Postemergence) was 6 and the “Morningglory plant response rating” value [1, 24] was 7. For the same compound, the “Plant response rating, Morningglory” value [1, 25] was 2, the “Crabgrass plant response rating” value [2, 17] was 2 and the “Crabgrass plant response rating” value [2, 18] was 0. For the same compound, the “Crabgrass plant response rating (0 to 10 scale)” value [2, 19] was 5, the “Crabgrass plant response rating” value [2, 20] was 7 and the “Crabgrass plant response rating” value [2, 21] was 9. For the same compound, the “Crabgrass plant response rating” value [2, 22] was 0, the “Crabgrass plant response rating” value [2, 23] was 0 and the “Plant response rating (0 to 10; 0 is no effect, 10 is complete control), Crabgrass” value ([2]; Rate 250 g/ha, Postemergence) was 0. The “Crabgrass plant response rating” value [2, 24] was 2, the “Plant response rating, Crabgrass” value [2, 25] was 9 and the “Nutsedge plant response rating” value [3, 17] was 0. For the same compound, the “Nutsedge plant response rating” value [3, 18] was 0, the “Nutsedge plant response rating (0 to 10 scale)” value [3, 19] was 0 and the “Nutsedge plant response rating” value [3, 20] was 0. The “Nutsedge plant response rating” value [3, 21] was 0, the “Nutsedge plant response rating” value [3, 22] was 0 and the “Nutsedge plant response rating” value [3, 23] was 0. For the same compound, the “Plant response rating (0 to 10; 0 is no effect, 10 is complete control), Nutsedge” value ([3]; Rate 250 g/ha, Postemergence) was 0, the “Nutsedge plant response rating” value [3, 24] was 0 and the “Giant foxtail plant response rating” value [4, 17] was 3. The “Giant foxtail plant response rating” value [4, 18] was 0, the “Giant foxtail plant response rating (0 to 10 scale)” value [4, 19] was 9 and the “Giant foxtail plant response rating” value [4, 20] was 10. For the same compound, the “Giant foxtail plant response rating” value [4, 21] was 10, the “Giant foxtail plant response rating” value [4, 22] was 0 and the “Giant foxtail plant response rating” value [4, 23] was 0. The “Plant response rating (0 to 10; 0 is no effect, 10 is complete control), Giant foxtail” value ([4]; Rate 250 g/ha, Postemergence) was 0, the “Giant foxtail plant response rating” value [4, 24] was 2 and the “Plant response rating, Giant foxtail” value [4, 25] was 10. The “Soybean plant response rating” value [5, 17] was 4, the “Soybean plant response rating” value [5, 18] was 0 and the “Soybean plant response rating (0 to 10 scale)” value [5, 19] was 0. For the same compound, the “Soybean plant response rating” value [5, 20] was 0, the “Soybean plant response rating” value [5, 21] was 0 and the “Soybean plant response rating” value [5, 22] was 1. The “Soybean plant response rating” value [5, 23] was 1, the “Plant response rating (0 to 10; 0 is no effect, 10 is complete control), Soybean” value ([5]; Rate 250 g/ha, Postemergence) was 3 and the “Soybean plant response rating” value [5, 24] was 3. The “Plant response rating, Soybean” value [5, 25] was 0, the “Bedstraw plant response rating” value [6, 18] was 0 and the “Bedstraw plant response rating (0 to 10 scale)” value [6, 19] was 0. The “Bedstraw plant response rating” value [6, 20] was 2, the “Bedstraw plant response rating” value [6, 21] was 2 and the “Bedstraw plant response rating” value [6, 22] was 0. The “Bedstraw plant response rating” value [6, 23] was 7, the “Plant response rating (0 to 10; 0 is no effect, 10 is complete control), Bedstraw” value ([6]; Rate 250 g/ha, Postemergence) was 3 and the “Bedstraw plant response rating” value [6, 24] was 6. The “Plant response rating, Bedstraw” value [6, 25] was 2, the “B. signalgrass plant response rating” value [7, 17] was 3 and the “B. signalgrass plant response rating” value [7, 18] was 5. For the same compound, the “B. signalgrass plant response rating (0 to 10 scale)” value [7, 19] was 5, the “B. signalgrass plant response rating” value [7, 20] was 8 and the “B. signalgrass plant response rating” value [7, 21] was 8. The “B. signalgrass plant response rating” value [7, 22] was 0, the “B. signalgrass plant response rating” value ([7]; Rate 125 g/ha, Postemergence, scale 0 (no effect) to 10 (complete control)) was 0 and the “Plant response rating, B. signalgrass” value ([7]; Rate 250 g/ha, Postemergence, scale 0 to 10, 0 is no effect, 10 is complete control) was 0. For the same compound, the “B. signalgrass plant response rating” value ([7]; Rate 500 g/ha, Postemergence, scale 0 to 10, 0 no effect, 10 complete control) was 0, the “Plant response rating, B. signalgrass” value [7, 25] was 5 and the “Wheat plant response rating” value [8, 17] was 3. For the same compound, the “Wheat plant response rating” value [8, 18] was 0, the “Wheat plant response rating” value [8, 20] was 0 and the “Wheat plant response rating” value [8, 21] was 0. For the same compound, the “Wheat plant response rating” value [8, 23] was 2, the “Plant response rating (0 to 10; 0 is no effect, 10 is complete control), Wheat” value ([8]; Rate 250 g/ha, Postemergence) was 2 and the “Wheat plant response rating” value [8, 24] was 3. The “Plant response rating, Wheat” value [8, 25] was 0, the “Rice plant response rating” value [9, 26] was 0 and the “Rice plant response rating” value [9, 27] was 0. For the same compound, the “Rice plant response rating” value [9, 28] was 0, the “Plant response rating, Rice” value [9, 29] was 0 and the “Rice plant response rating” value [9, 30] was 0. The “Redroot pigweed plant response rating” value [10, 17] was 6, the “Redroot pigweed plant response rating” value [10, 18] was 0 and the “Redroot pigweed plant response rating (0 to 10 scale)” value [10, 19] was 0. For the same compound, the “Redroot pigweed plant response rating” value [10, 20] was 0, the “Redroot pigweed plant response rating” value [10, 21] was 1 and the “Redroot pigweed plant response rating” value [10, 22] was 0. The “Redroot pigweed plant response rating” value [10, 23] was 4, the “Plant response rating (0 to 10; 0 is no effect, 10 is complete control), Redroot pigweed” value ([10]; Rate 250 g/ha, Postemergence) was 7 and the “Redroot pigweed plant response rating” value [10, 24] was 7. For the same compound, the “Plant response rating, Redroot pigweed” value [10, 25] was 2, the “Wild oats plant response rating” value [11, 17] was 5 and the “Wild oats plant response rating” value [11, 18] was 0. For the same compound, the “Wild oats plant response rating” value [11, 20] was 0, the “Wild oats plant response rating” value [11, 21] was 3 and the “Wild oats plant response rating” value [11, 23] was 0. For the same compound, the “Plant response rating (0 to 10; 0 is no effect, 10 is complete control), Wild oats” value ([11]; Rate 250 g/ha, Postemergence) was 0, the “Wild oats plant response rating” value [11, 24] was 2 and the “Plant response rating, Wild oats” value [11, 25] was 4. The “S. Flatsedge plant response rating” value ([12]; Pre-emergence, Rate 1000 g/ha, scale 0 to 10 (0 no effect, 10 complete control)) was 0, the “S. Flatsedge plant response rating” value [12, 26] was 0 and the “S. Flatsedge plant response rating” value [12, 27] was 0. The “S. Flatsedge plant response rating” value [12, 28] was 0, the “S. Flatsedge plant response rating” value ([12]; Rate 500 g/ha, Pre-emergence, flood test species, scale 0 to 10 (0 no effect, 10 complete control)) was 0 and the “Velvetleaf plant response rating” value [13, 17] was 2. For the same compound, the “Velvetleaf plant response rating” value [13, 18] was 0, the “Velvetleaf plant response rating” value [13, 20] was 2 and the “Velvetleaf plant response rating” value [13, 21] was 7. For the same compound, the “Velvetleaf plant response rating” value [13, 23] was 1, the “Plant response rating (0 to 10; 0 is no effect, 10 is complete control), Velvetleaf” value ([13]; Rate 250 g/ha, Postemergence) was 1 and the “Velvetleaf plant response rating” value [13, 24] was 5. For the same compound, the “Plant response rating, Velvetleaf” value [13, 25] was 3, the “Blackgrass plant response rating” value [14, 17] was 7 and the “Blackgrass plant response rating” value [14, 18] was 0. The “Blackgrass plant response rating (0 to 10 scale)” value [14, 19] was 3, the “Blackgrass plant response rating” value [14, 20] was 5 and the “Blackgrass plant response rating” value [14, 21] was 7. The “Blackgrass plant response rating” value [14, 22] was 0, the “Blackgrass plant response rating” value [14, 23] was 1 and the “Plant response rating (0 to 10; 0 is no effect, 10 is complete control), Blackgrass” value ([14]; Rate 250 g/ha, Postemergence) was 3. The “Blackgrass plant response rating” value [14, 24] was 4, the “Plant response rating, Blackgrass” value [14, 25] was 7 and the “Barnyardgrass plant response rating” value [15, 26] was 0. The “Barnyardgrass plant response rating” value [15, 27] was 0, the “Barnyardgrass plant response rating” value [15, 28] was 0 and the “Plant response rating, Barnyardgrass” value [15, 29] was 6. The “Barnyardgrass plant response rating” value ([15]; Rate 500 g/ha, listed under Postemergence (flood test species), scale 0 to 10) was 0, the “Barnyardgrass plant response rating” value [15, 30] was 3 and the “Cocklebur plant response rating” value [16, 17] was 2. For the same compound, the “Cocklebur plant response rating” value [16, 18] was 0, the “Cocklebur plant response rating (0 to 10 scale)” value [16, 19] was 0 and the “Cocklebur plant response rating” value [16, 20] was 0. For the same compound, the “Cocklebur plant response rating” value [16, 21] was 2, the “Cocklebur plant response rating” value [16, 22] was 0 and the “Cocklebur plant response rating” value [16, 23] was 0. The “Plant response rating (0 to 10; 0 is no effect, 10 is complete control), Cocklebur” value ([16]; Rate 250 g/ha, Postemergence) was 0, the “Cocklebur plant response rating” value [16, 24] was 1 and the “Plant response rating, Cocklebur” value [16, 25] was 3.
